Patent US6693128B2, “Substituted dicinnamoylquinides and their use in augmentation of adenonsine function” (Vanderbilt University, priority 2001, dated 2004)

Tests used:
[1] = target: T1, human (es) transporter (Homo sapiens, UniProt Q99808); assay: Inhibition of [3H]adenosine transport in homogenates of U-937 cell culture; assay type: biochemical; conditions: 10 μM [3H]adenosine; U-937 cell homogenates; HEPES buffer, 37° C., 30 min; read-out: inhibitory constant Ki, transport of [3H]adenosine
T1 construct: homogenates of U-937 cell culture (American Tissue Culture Compository), expressing the human (es) transporter; endogenous in cells; host or cells: U-937 (human) cell membrane homogenates
T1 sequence (Q99808 1-456): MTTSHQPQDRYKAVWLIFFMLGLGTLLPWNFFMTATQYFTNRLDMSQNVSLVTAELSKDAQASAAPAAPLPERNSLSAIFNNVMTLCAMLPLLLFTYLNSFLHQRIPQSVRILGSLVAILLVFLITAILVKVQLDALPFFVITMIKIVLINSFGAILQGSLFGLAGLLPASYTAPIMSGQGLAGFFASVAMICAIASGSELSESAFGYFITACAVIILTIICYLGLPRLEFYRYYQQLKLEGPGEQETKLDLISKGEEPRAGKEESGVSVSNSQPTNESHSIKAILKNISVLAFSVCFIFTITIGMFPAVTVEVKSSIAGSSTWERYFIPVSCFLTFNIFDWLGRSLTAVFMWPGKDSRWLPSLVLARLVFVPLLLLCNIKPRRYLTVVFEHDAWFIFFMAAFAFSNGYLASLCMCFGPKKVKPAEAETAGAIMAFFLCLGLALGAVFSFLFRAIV
Description: Inhibition of [^3H]adenosine transport in homogenates of U-937 cell culture (American Tissue Culture Compository), expressing the human (es) transporter is performed according to Gu et al, J. Neurochem 67, 972-977 (1996), which is incorporated herein by reference. Rate of transport is determined in HEPES buffer at 37° C. for 30 min (with choline replacing sodium). Full displacement curves for the adenosine transporter are obtained by using 8 concentrations of each compound, increasing by a factor of 2 and ranging from 0.25 μM-32 μM. Nonspecific transport is defined with 1 μM NBTI ((S)-(4-nitrobenzyl)-6-thioinosine). Cell cultures are grown in high glucose Dulbecco's modified Eagle's medium supplemented with NaHCO3 (40 mM), 10% fetal bovine serum (Gibco), 400 mg/L geneticin, and 0.1 mM hypoxanthine.
Briefly, the cells are cultured at 37° C. under a CO2/air (5/95, v/v) in tissue culture flasks (75 cm^2, Falcon). When reaching confluency (70-80%), cells are trypsinized and harvested by centrifugation. Harvested cells are re-suspended in 50 mM TRIS buffer at 4° C. (0.1 mg/mL), the cell membranes are disrupted by Polytron homogenization (12,500 rpm for 25 s), and the suspension is centrifuged at 30,000×g for 60 min. The supernatent is discarded and remaining the pellet is resuspended in 50 mM TRIS buffer to 0.2 mg-0.5 mg protein/mL and frozen at −80° C. until used. […]

[2] = target: T2, human adenosine transporter (Homo sapiens, UniProt Q99808); assay: Displacement of [3H]NBTI binding in U-937 cell homogenates; conditions: mean ± SEM; for Ki: [3H]NBTI 2-4 nM, 50 mM TRIS pH 7.5, 4° C., 1.5 h, Cheng-Prusoff, read-out: Affinity (Ki μM); for Hill slope: log-logit analysis of competition binding data
T2 construct: homogenates of U-937 cell culture (American Tissue Culture Compository), expressing the human (es) transporter; endogenous in cells; host or cells: U-937 (human) cell membrane homogenates
T2 sequence (Q99808 1-456): T1 sequence (Q99808 1-456)
Description: Neurochem 39, 184-191 (1982), incorporated herein by reference. The cell membranes in final concentration of 0.03 mg protein/mL are incubated with [^3H]NBTI at 2-4 nM concentration in 50 mM TRIS buffer (pH 7.5) at 4° C. for 1.5 h in a total volume of 1.0 mL. Nonspecific binding is defined with 10 μM NBTI. Each determination is carried out in triplicate. Bound and free [^3H]NBTI are separated by vacuum filtration through fiberglass filters (Schleicher & Schuell, Keene, N.H.) that are presoaked with 0.3% polyethylenimine for 10 min, using a Brandel […] cell harvester. The filters are washed three times for 10 s with ice-cold 50 mM TRIS buffer and placed in 10 mL scintillation fluid (Cytoscint, ICN). Beta spectrometry is performed using a Beckman […] instrument at 47% counting efficiency. IC50 values and Hill slopes (nH) are calculated from log-logit analysis of competition binding data. Ki values of the competing ligand are calculated from IC50 values using the Cheng-Prusoff equation, Ki=IC50/(1+L/KD) […] Data are expressed as mean±standard error of the mean (SEM).

Row | Ki [1] [µM] | Ki [2] [µM] | Hill slope [2] | melting point [°C] | SMILES
1 | 1.2 | 0.96 ± 0.13 | 0.94 ± 0.02 | 142 to 144 | COc1cc(C=CC(=O)OC2CC3(O)CC(OC3=O)C2OC(=O)C=Cc2ccc(O)c(OC)c2)ccc1O (stereo not drawn) [3,4-diferuloyl-1,5-quinide]
2 |  | 1.3 | 1.12 ± 0.00 | 172 | O=C(C=Cc1ccc(Cl)cc1)OC1CC2(O)CC(OC2=O)C1OC(=O)C=Cc1ccc(Cl)cc1 (stereo not drawn) [3,4-di(4-chlorocinnamoyl)-1,5-quinide]
3 |  | 2.4 ± 0.7 | 1.00 ± 0.03 |  | O=C(C=Cc1ccc(O)c(O)c1)OC1CC2(O)CC(OC2=O)C1OC(=O)C=Cc1ccc(O)c(O)c1 (stereo not drawn) [3,4-dicaffeoyl-1,5-quinide]
4 |  | 0.96 ± 0.07 | 1.22 ± 0.11 | 233 to 235 | O=C(C=Cc1ccc(O)cc1)OC1CC2(O)CC(OC2=O)C1OC(=O)C=Cc1ccc(O)cc1 (stereo not drawn) [3,4-dicoumaroyl-1,5-quinide]
